Source: PubChem BioAssay AID652215 (Vanderbilt Specialized Chemistry Center, 2013)
Activity calls are given as the source filed them.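 The calls were made as follows: active = activity score of 50 or more, meaning choline uptake cut by at least half versus untreated control; inactive = the rest.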

Biological target: High affinity choline transporter 1 (Homo sapiens) (UniProt Q9GZV3)
Experiment: CHT inhibition at low and high choline, SAR follow-up, mechanism study for choline transporter inhibitor project, cell-based, HEK-293 hCHT LV-AA, [3H]-choline (AID 652215)
Settings: [3H]-choline uptake, 15 min, at 5 µM, stronger effect = lower value; for activity remaining, high choline: measured here: 10 uM choline uptake

High affinity choline transporter 1 (Homo sapiens), sequence (Q9GZV3 whole entry, looked up): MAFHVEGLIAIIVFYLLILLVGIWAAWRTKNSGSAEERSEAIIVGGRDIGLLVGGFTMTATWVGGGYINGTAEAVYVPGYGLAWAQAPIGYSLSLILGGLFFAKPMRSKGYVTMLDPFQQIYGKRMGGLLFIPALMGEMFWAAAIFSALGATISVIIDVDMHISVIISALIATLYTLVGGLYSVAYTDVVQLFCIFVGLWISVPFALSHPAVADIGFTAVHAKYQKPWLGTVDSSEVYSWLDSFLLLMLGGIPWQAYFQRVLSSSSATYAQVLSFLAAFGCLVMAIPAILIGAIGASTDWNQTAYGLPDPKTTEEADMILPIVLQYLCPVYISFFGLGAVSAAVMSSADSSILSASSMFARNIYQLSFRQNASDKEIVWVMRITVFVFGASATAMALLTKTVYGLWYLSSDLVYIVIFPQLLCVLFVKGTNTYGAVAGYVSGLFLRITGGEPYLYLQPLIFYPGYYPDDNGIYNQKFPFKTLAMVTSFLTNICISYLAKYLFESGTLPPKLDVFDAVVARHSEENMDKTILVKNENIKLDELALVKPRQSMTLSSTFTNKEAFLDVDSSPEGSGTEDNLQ

Compound	activity remaining, low choline	activity remaining, high choline [%]
COc1ccc(C(=O)NCc2cc(C(C)C)no2)cc1OCC1CCC1	94.9% (inactive)	92.7
COc1ccc(C(=O)N[C@H]2CC[C@H](O)CC2)cc1OC1CCN(C(C)C)CC1	29.7%	101
COc1ccc(C(=O)NCC2CCOCC2)cc1OC1CCN(C(C)C)CC1	80% (inactive)	74.5
COc1ccc(C(=O)NC(C)c2cn(C)nc2C)cc1OC1CCN(C(C)C)CC1 (configuration not stated)	57.1% (inactive)	73.9
COc1ccc(C(=O)NCc2cc(C(C)C)no2)cc1OCc1cccnc1	87.3% (inactive)	95.5
COc1ccc(C(=O)NCc2cnn(C)c2C)cc1OC1CCN(C(C)C)CC1	33.1%	57
COc1ccc(C(=O)NC(C)c2nccs2)cc1OC1CCN(C(C)C)CC1 (configuration not stated)	34.1%	72.1
COc1ccc(C(=O)NCCc2c[nH]c3ccccc23)cc1OC1CCN(C(C)C)CC1	15.9%	58
CCCCOc1cc(C(=O)NCc2cc(C(C)C)no2)ccc1OC	85.6% (inactive)	88.8
COc1ccc(C(=O)NCC[C@@H]2C[C@@H]3C=C[C@H]2C3)cc1OC1CCN(C(C)C)CC1	9.91%	66.3
CCc1cc(CNC(=O)c2ccc(OC)c(OC3CCN(C(C)C)CC3)c2)on1	92.9% (inactive)	71
COc1ccc(C(=O)N[C@H]2CCCCNC2=O)cc1OC1CCN(C(C)C)CC1	13.1%	73.4
COc1ccc(C(=O)NCCN2CCCCC2=O)cc1OC1CCN(C(C)C)CC1	80.3% (inactive)	84.5
COc1ccc(C(=O)NCc2ccccc2C)cc1OC1CCN(C(C)C)CC1	32.9%	64.8
COc1ccc(C(=O)NCc2cccc(C)c2)cc1OC1CCN(C(C)C)CC1	29.4%	60.9
CCc1cc(CNC(=O)c2ccc(OC)c(OC(=O)c3ccc(OC)c(O)c3)c2)on1	92.3% (inactive)	88.5
COc1ccc(C(=O)NCCc2ccncc2)cc1OC1CCN(C(C)C)CC1	71.2% (inactive)	82.8
COc1ccc(C(=O)NCc2cc(C(C)C)no2)cc1OCC1CCCCC1	87.2% (inactive)	83
CCc1cc(CNC(=O)c2ccc(OC)c(OC3CCCN(C)C3)c2)on1 (configuration not stated)	56.5% (inactive)	67.1
CCc1cc(CNC(=O)c2ccc(OC)c(OCCOC)c2)on1	89.1% (inactive)	80.6
COc1ccc(C(=O)NCc2cc(C(C)C)no2)cc1OCCCN(C)C	67.3% (inactive)	59.6
CCCCOc1cc(C(=O)NCc2cc(CC)no2)ccc1OC	92.3% (inactive)	62.3
COc1ccc(C(=O)NCc2cc(C(C)C)no2)cc1OCc1ccccn1	87.2% (inactive)	100
COc1ccc(C(=O)NCCCn2ccnc2)cc1OC1CCN(C(C)C)CC1	52.4% (inactive)	60.8
COc1ccc(C(=O)NCCc2cnn(C)c2)cc1OC1CCN(C(C)C)CC1	36.7%	88.3
COc1ccc(C(=O)NCc2ccon2)cc1OC1CCN(C(C)C)CC1	46%	83.3

Compound	activity remaining, low choline	activity remaining, high choline [%]
COc1ccc(C(=O)NCCN2CCOC2=O)cc1OC1CCN(C(C)C)CC1	41.8%	97.6
COc1ccc(C(=O)NCc2cc(C(C)C)no2)cc1OCc1ccncc1	85.9% (inactive)	83.8
CCOc1cc(C(=O)NCc2cc(CC)no2)ccc1OC	86.4% (inactive)	87.1
CCc1cc(CNC(=O)c2ccc(OC)c(OCc3cccnc3)c2)on1	94.5% (inactive)	72
CCc1cc(CNC(=O)c2ccc(OC)c(OCCN3CCCCC3)c2)on1	22.7%	38.2
CCc1cc(CNC(=O)c2ccc(OC)c(OCc3ccccc3)c2)on1	90% (inactive)	107
CCc1cc(CNC(=O)c2ccc(OC)c(OCc3ccccn3)c2)on1	90.2% (inactive)	102
CCc1cc(CNC(=O)c2ccc(OC)c(OCCN3CCCC3)c2)on1	59.3% (inactive)	71.4
COc1ccc(C(=O)NCCCn2cccn2)cc1OC1CCN(C(C)C)CC1	20.4%	77.5
CCc1cc(CNC(=O)c2ccc(OC)c(OC3CCCC3)c2)on1	98% (inactive)	99.4
COc1ccc(C(=O)NCc2cc(C(C)C)no2)cc1OCc1ccccc1	90.8% (inactive)	97.2
COc1ccc(C(=O)NCC2OCCc3ccccc32)cc1OC1CCN(C(C)C)CC1 (configuration not stated)	71.9% (inactive)	67.1
COc1ccc(CNC(=O)c2ccc(OC)c(OC3CCN(C(C)C)CC3)c2)cc1OC	52.7% (inactive)	83.6
COc1ccc(C(=O)NC2CCCCC2)cc1OC1CCN(C(C)C)CC1	72.2% (inactive)	78.8
CCOc1cc(C(=O)NCc2cc(C(C)C)no2)ccc1OC	93.9% (inactive)	78.2
CCc1cc(CNC(=O)c2ccc(OC)c(OCCN3CCOCC3)c2)on1	69.2% (inactive)	78.9
COc1ccc(C(=O)NCc2ccc(Cl)s2)cc1OC1CCN(C(C)C)CC1	35.3%	81
COc1ccc(C(=O)NCC(C)Oc2cccnc2)cc1OC1CCN(C(C)C)CC1 (configuration not stated)	43.1%	71.2
CCc1cc(CNC(=O)c2ccc(OC)c(O)c2)on1	93.7% (inactive)	90.1
CCc1cc(CNC(=O)c2ccc(OC)c(OCC3CCC3)c2)on1	91.1% (inactive)	70.2
COCCOc1cc(C(=O)NCc2cc(C(C)C)no2)ccc1OC	86.8% (inactive)	84.5
CCc1cc(CNC(=O)c2ccc(OC)c(OC(C)CN(C)C)c2)on1 (configuration not stated)	77.1% (inactive)	57.9
CCc1cc(CNC(=O)c2ccc(OC)c(OC3CCN(C)CC3)c2)on1	7.98%	56.4
COc1ccc(C(=O)NCc2cc(C(C)C)no2)cc1OC(C)C	89.4% (inactive)	99.8
CCc1cc(CNC(=O)c2ccc(OC)c(OC3CCNCC3)c2)on1	62.2% (inactive)	94.7
